According to US9820988B2, “Treatment of epileptic disorders in feline animals” (Boehringer Ingelheim Vetmedica GmbH, priority 2014, dated 2017):
Like-named read-outs stand apart in the source and are kept apart here.

Legend:
[1] = test system: feline amygdala or hippocampal kindled seizures; conditions: partial onset and secondarily generalized limbic seizures; cited from earlier work
[2] = test system: treated cats; conditions: cited from earlier work
[3] = test system: cats with drug resistant epilepsy; test: Efficacy 4: cats with drug-resistant (phenobarbital) epileptic disorders switched to imepitoin; type: in vivo, cat
Experimental: Cats with epileptic disorders are treated with increasing doses of phenobarbital, starting from 3 mg/kg bodyweight twice daily up to the maximum tolerated dose. […] According to this treatment failure this represents drug-resistant epileptic disorders. The treatment of these cats with drug resistant epilepsy is now changed to imepitoin, provided at high doses as for example 30 mg/kg bodyweight twice daily.

[4] = test system: clinically healthy male and female cats; test: Safety 1: tolerance in clinically healthy cats after repeated oral administration for 30 days; type: in vivo, cat
Text: In a randomized, controlled, blinded study the tolerance of imepitoin is investigated in clinically healthy male and female cats after repeated oral administration for 30 days.
Twelve 1-3 years old, male and female domestic short hair cats with a body weight range of 2.8-4.4 kg are assigned to this study. The animals are randomly allocated to two groups, three male and three female animals per group. The test article (imepitoin) is orally administered to the animals of group II at a target dose of 30 mg imepitoin/kg bodyweight twice daily at an interval of 8-12 h on days 0-29. Group I is left untreated serving as controls.

[5] = test system: cats with epilepsy; test: Efficacy 1: two cats diagnosed with epilepsy, severe generalized seizures; type: in vivo, cat
Experimental: Two cats are diagnosed with epilepsy, having severe generalized seizures.
The first cat, a 14 year old European Short-Hair cat, had two severe generalized seizures. Both lasted around two minutes, the cat lost consciousness and was disoriented after the seizure. In addition, a fibrosarcoma and hyperthyroidism was diagnosed. The cat was treated twice a day with 100 mg imepitoin, being a dose of 25 mg/kg bodyweight. […] This resolved spontaneously after 10 days of treatment.
The second cat, 7 years old, experienced two generalized seizures on two consecutive days, and the diagnosis was epilepsy of unknown cause. The cat appeared to be sleepier in the time before occurrence of first seizure.

[6] = test system: feline patients with epilepsy; test: Efficacy 2: seizure frequency and severity in feline patients versus untreated status at diagnosis; type: in vivo, cat
Text: In some animals, treatment with current standard of care, phenobarbital, is not effective and results in frequent severe seizures despite high-dose treatment.

[7] = test system: cats with epileptic disorders; test: Efficacy 3: imepitoin versus phenobarbital in two groups of cats with epileptic disorders
[8] = Pharmacokinetics of imepitoin in cats after oral administration (Example 1); type: in vivo, cat; conditions: for Tmax / Cmax / AUC(0-t): po; for Tmax: 30 mg/kg; for Cmax / AUC(0-t): Day 0, first dose of 30 mg/kg; for AUC(0-t): read-out: AUC0-6h
Experimental: FIG. 1 Mean plasma concentration-time curves of imepitoin after the first oral dose of 30 mg/kg imepitoin in male (M) and female cats (F) at Day 0, Day 14 and Day 29 (semi-logarithmic scale).
When administered orally at a preferred dose of e.g. 30 mg/kg bodyweight twice daily (60 mg/kg bodyweight daily dose) imepitoin the highest plasma concentration […] is reached in median 1 hour (range 0.5 to 3 hours) after administration, in most cases 1 hour.
Corresponding AUC0-6h-values are 28001 ng·h/mL and 24467 ng·h/mL, respectively.

[9] = test system: clinically healthy male and female cats; test: Safety 2: repeated oral administration of 40 and 80 mg/kg twice daily for 30 days, placebo controlled; type: in vivo, cat
Experimental: FIG. 3 Measurement of Alkaline Phosphatase (AP) in serum following administration of imepitoin in doses of 40 or 80 mg/kg bodyweight twice daily, or placebo. AP is routinely used to judge liver function and diagnose liver pathologies, and an elevated AP is indicative for a variety of diseases. […] Day 0 reflects measurement before treatment start.
Eighteen 9 months old, male and female domestic short hair cats with a body weight range of 2.3-4.9 kg are assigned to this study. The animals are allocated to three test groups employing a pseudo-random body weight stratification procedure that yielded groups with approximately equal mean body weight, with three male and three female animals per group. The test article (imepitoin) is orally administered to the animals at a target dose of 40 mg imepitoin/kg bodyweight and 80 mg imepitoin/kg bodyweight twice daily at an interval of 8-12 h on days 0-30. The third group receives visually identical placebo tablets, to avoid identification of the Placebo Group.
Physical examination a day before treatment start and on study days 7, 14 and 30 includes body temperature (rectal), ocular system, musculoskeletal system, cardiovascular system, reproductive system, lymphatic system, behavior, nervous system, integumentary system, respiratory system, urinary system and gastro-intestinal system. In addition, blood and urine samples are analyzed before treatment and after 30 days.

[10] = test system: healthy cats; conditions: 20 mg/kg dose; cited from earlier work
[11] = 30 mg/kg bodyweight twice daily, days 0-29
[12] = second cat, 10 mg/kg bodyweight twice daily
[13] = second cat, 20 mg/kg bodyweight twice daily
[14] = imepitoin 30 mg/kg twice daily, phenobarbital 3.5 mg/kg twice daily
[15] = female, domestic short hair, plasma, females (n=3)
[16] = male, domestic short hair, plasma, males (n=3)
[17] = 40 and 80 mg/kg body weight twice daily for 30 days
[18] = 40 and 80 mg/kg body weight twice daily, after 30 days

In the case of `C=CC(N)CCC(=O)O` (stereo not shown) [gamma-vinyl GABA], the “anticonvulsant effect on kindled seizures” value (from here on “anticonvulsant effect”) [1] is given as “potent anticonvulsant effects”.

For `CC[C@@H](C(N)=O)N1CCCC1=O` [Levetiracetam], the “efficacy as add-on therapy” value ([2]; cats with refractory epilepsy under phenobarbital treatment, 10 cats) is given as “somewhat effective”.

In the case of `Cl.O=C(O)C1CCCN(CCC=C(c2ccccc2)c2ccccc2)C1` (stereo not shown) [SKF89976A], the “anticonvulsant effect” value [1] is listed as “potent anticonvulsant effects”.

With `O=C1N=C(N2CCOCC2)CN1c1ccc(Cl)cc1` [imepitoin, 1-(4-chlorophenyl)-4-(4-morpholinyl)-2,5-dihydro-1H-imidazol-2-one] the “reduction of seizure frequency” value ([3]; after change to imepitoin 30 mg/kg bodyweight twice daily, in most cases) was “at least 50%”, the “seizure status after transition from phenobarbital to imepitoin monotherapy” value ([3]; cats with uncontrolled or continuing seizures under phenobarbital) was “became seizure free” and the “liver enzyme measurements versus untreated control” value ([4]; 30 mg/kg bodyweight twice daily, FIGS. 2A+2B) was “no difference between imepitoin-treated and untreated (control) animals”. For the same compound, the Mortality [4, 11] was “not observed”, the “effect on body weight development, food and water consumption, heart rate, respiratory rate and laboratory parameters (hematology, clinical chemistry, urinalysis)” value [4, 11] was “No evidence of a clear effect” and the sedation [4, 11] was “No sedation is observed in any animal”. The “animals with temporary vomitus or choking” value ([4]; 30 mg/kg twice daily, from the second week of treatment onwards) was 3 of 6, the considerable adverse events ([5]; first cat, 25 mg/kg bodyweight twice a day) was “No considerable adverse events were observed” and the tiredness ([5]; first cat, 25 mg/kg bodyweight twice a day, initially) was “tiredness 1-1.5 hours after application of the drug, which lasted for about two hours”. For the same compound, the “duration of complete seizure freedom (observation period)” value ([5]; first cat, 25 mg/kg then 20 mg/kg bodyweight twice a day) was 6 months, the seizures under treatment ([5]; first cat, 14 years, 100 mg (25 mg/kg bodyweight) twice a day) was “no further seizures” and the “tiredness after dose reduction” value ([5]; first cat, dose reduced to 20 mg/kg bodyweight after three months) was “the tiredness disappeared”. The seizures under treatment [5, 12] was “experienced again a seizure”, the tiredness [5, 12] was “resolved the tiredness” and the “duration of complete seizure freedom (observation period)” value [5, 13] was 2.5 months. The “tiredness or other adverse events” value [5, 13] was “No tiredness or other adverse events were observed”, the tiredness ([5]; second cat, 30 mg/kg bodyweight twice a day) was “showed the tiredness observed in the first cat already after treatment start” and the response to treatment ([5]; second cat, 7 years, 30 mg/kg bodyweight twice a day) was “responded immediately to treatment”. The “seizure frequency and severity compared to untreated status at diagnosis” value ([6]; 30 mg/kg bodyweight twice daily) was “significantly reduced”, the “cats achieving seizure freedom” value ([6]; 30 mg/kg bodyweight twice daily at an interval of 8-14 hours) was “at least 40%” and the considerable adverse events ([6]; 30 mg/kg bodyweight twice daily, seizure-free cats) was “do also not experience considerable adverse events”. For the same compound, the “seizure frequency and/or severity in animals in which phenobarbital is not effective” value ([6]; 20 to 60 mg/kg bodyweight two- or three-times daily) was “reduces seizure frequency and/or severity significantly”, the “seizure freedom among well controlled cats” value ([7]; imepitoin 30 mg/kg bodyweight twice daily) was “the majority of them reach seizure freedom” and the “cats poorly controlled / disease not adequately controlled” value [7, 14] was “about 15%”. The “cats with well controlled epilepsy/seizures” value [7, 14] was 85%, the “accumulation upon long-term BID dosing” value ([8]; 30 mg/kg twice daily, Days 0-29) was “no accumulation occurs” and the “exposure compared to the first dosing day” value ([8]; after 14 and 29 days of twice daily dosing) was “slightly lower exposure”. It also gave a Tmax ([8]; both sexes, domestic short hair, plasma, oral, 30 mg/kg bodyweight twice daily, read-out: tMax, median) of 1 h, a Tmax ([8]; both sexes, domestic short hair, plasma, oral, 30 mg/kg bodyweight twice daily, read-out: tMax, range) of 0.5 to 3 h and a half-life ([8]; both sexes, domestic short hair, plasma, oral, 30 mg/kg bodyweight twice daily, read-out: half-life time t1/2 (converted)) of 1.5 h. It also gave a Cmax [8, 15] of 6.64 µg/mL, an AUC(0-t) [8, 15] of 24.5 µg·h/mL and a Cmax [8, 16] of 7.05 µg/mL. For the same compound, the AUC(0-t) [8, 16] was 28 µg·h/mL, the “time of last measurable concentration” value ([8]; oral 30 mg/kg) was “more than 18 hours” and the “behavioral changes or sedation” value [9, 17] was “not noted”. The considerable adverse events [9, 17] was “no considerable adverse events are observed”, the emesis [9, 17] was “intermittently observed in the second and third week of treatment” and the tolerability [9, 17] was “well tolerated by all cats”. For the same compound, the “hematological or biochemical abnormalities in blood examination” value [9, 18] was “No hematological or biochemical abnormalities are noted”, the urine analysis [9, 18] was “physiological results” and the “Alkaline Phosphatase (AP) in serum” value ([9]; 40 or 80 mg/kg bodyweight twice daily, FIG. 3) was “in the physiological range with normal variance”.

For `NS(=O)(=O)Cc1noc2ccccc12` [zonisamide], the “share of healthy cats with adverse reactions (anorexia, diarrhea, vomiting, somnolence, ataxia)” value [10] is listed as “Approximately half”.

With `CCC1(c2ccccc2)C(=O)NC(=O)NC1=O` [phenobarbital] the “cats poorly controlled / disease not adequately controlled” value [7, 14] was 30%, the “cats with well controlled epilepsy/seizures” value [7, 14] was 70% and the “treated cats experiencing at least one adverse event” value [7, 14] was 65%. The “treated cats experiencing sedation as side effect” value ([7]; phenobarbital 3.5 mg/kg bodyweight twice daily) was “approximately 40%” and the “treated cases with sedation” value ([2]; cats, recent study (Pakozdy et al. 2013)) was “over 40%”.

In the case of `[Br-].[K+]` [Bromide], the “treated cats with idiosyncratic allergic pneumonitis” value ([2]; cats) is given as 35-42% and the “treated cats with seizures controlled” value ([2]; cats) is given as “about 35%”.

In the case of `NCC(CC(=O)O)c1ccc(Cl)cc1` (stereo not shown) [baclofen], the “anticonvulsant effect” value [1] is given as “did not show anticonvulsant effects”.

For `NC(=O)CCC/N=C(\c1ccc(Cl)cc1)c1cc(F)ccc1O` [progabide], the “anticonvulsant effect” value [1] is given as “potent anticonvulsant effects”.
